From US20110150917A1, “Small Cationic Antimicrobial Peptides” (THE UNIVERSITY OF BRITISH COLUMBIA, priority 2007, published 2011)
Entries after “also recorded” stand apart in the source; their conditions may differ. Where no end group is shown, it is not given here.

Tests used:
[1] = mouse model; cited from earlier work
monocytic cells = details: cited from earlier work
bacterial infections = details: mouse, in vivo; cited from earlier work
[2] = tested on: human peripheral blood mononuclear cells (PBMC); experiment: Chemokine induction in human PBMC (capture ELISA); type: cell-based; details: for ability to stimulate human PBMC to induce the expression of the chemokines MCP-1, Gro-α and IL8: ELISA 24 hours after peptide addition, compared to LL-37, lowest peptide concentration 5 μg/ml
Procedure: (§1) Venous blood (20 ml) from healthy volunteers was collected in Vacutainer® collection tubes containing sodium heparin as an anticoagulant (Becton Dickinson, Mississauga, ON) in accordance with UBC ethical approval and guidelines. Blood was diluted 1:1 with complete RPMI 1640 medium and separated by centrifugation over a Ficoll-Paque® Plus (Amersham Biosciences, Piscataway, N.J., USA) density gradient. White blood cells were isolated from the buffy coat, washed twice in RPMI 1640 complete medium, and the number of peripheral blood mononuclear cells (PBMC) was determined by trypan blue exclusion. PBMC (5×10^5) were seeded into 12-well tissue culture dishes (Falcon; Becton Dickinson) at 0.75 to 1×10^6 cells/ml at 37° C. in 5% CO2. The above conditions were chosen to mimic conditions for circulating blood monocytes entering tissues at the site of infection via extravasation.
(§2) Following incubation of the cells under various treatment regimens, the tissue culture supernatants were centrifuged at 1000×g for 5 min, then at 10,000×g for 2 min to obtain cell-free samples. Supernatants were aliquoted and then stored at −20° C. prior to assay for various chemokines by capture ELISA (eBioscience and BioSource International Inc., CA, USA respectively).

human PBMC = experiment: Chemokine responses of human PBMC to CpG oligonucleotides with co-administered lantibiotic peptides; type: cell-based; details: for synergy with known adjuvants like CpG: FIG. 3, FIG. 8
Procedure: FIG. 3A-C. Reinforcement of chemokine responses in human PBMC to the bacterial signature molecules, Cpg oligonucleotides, by co-administration of lantibiotic peptides. On the X-axis of this and subsequent Figures, N=Nisin Z, P=Pep5, G=gallidermin.
as §1, §2

macrophages = details: previously shown in applicant's laboratory; cited from earlier work
Citrobacter rodentium = Citrobacter rodentium challenge in mice (live imaging, intestinal histology); type: in vivo
Procedure: FIG. 10. Live-time Non-invasive imaging following Citrobacter rodentium challenge; effect of nisin treatment. Animals were pre-treated intraperitoneally with 200 μg nisin, 4 h prior to initiating the infection. Mice were then infected via gavage with 2.5×10^8 CFU of Citrobacter rodentium (lux—luminescence labeled). Live mice were followed with a CCD camera over time to assess bacterial clearance/resolution of infection.
FIG. 11. Histology of the intestines of Citrobacter treated animals after sacrifice at day 11; effect of nisin treatment. A. Sections of (from right to left): normal uninfected, saline treated infected, and nisin-treated intestines. Letter labels are a. Inflammatory infiltrate and edema; b. elongated crypts (hyperplasia); c. sloughing of damaged epithelial cells (mucosal integrity); d. depletion of mucous in goblet cells. B. Scoring of these micrographs.

S. aureus = experiment: Protection of mice vs. Staphylococcus aureus challenge (peritoneal); type: in vivo
Procedure: FIG. 9. Protection of animals vs. Staphylococcus aureus challenge when administered 4 hours prior to initiating the infection. A represents the reduction in colony counts within the peritoneum of mice treated with lantibiotic peptide (or negative control 1005 or positive control 1002) and challenged with ˜10^8 S. aureus in hog gastric mucin. […] An additional peptide 1002 was included as a positive control.
Conventional peptides are known to protect against infection (Scott et al. Nature Biotech 2007). However such peptides are very expensive whereas lantibiotics are bacterial fermentation products and thus inexpensive. Thus we assessed the reduction in colony counts after 24 hours within the peritoneum of mice treated with the lantibiotic peptide nisin (or negative control 1005 or positive control 1002) and challenged these mice 4 hours later with ˜10^8 S. aureus in hog gastric mucin. […] Thus the in vitro activities of nisin in increasing MCP-1 production in PBMC is clearly related to in vivo protection in animal models.

[3] = intestines, sacrifice at day 11, p<0.05, FIG. 11

## LL-37: natural human host defence peptide (LLGDFFRKSKEKIGKEFKRIVQRIKDFLRNLVPRTES; Antibacterial peptide LL-37; UniProt P49913 134-170, looked up)
[1]
  endotoxin mediated TNFα induction and lethality: reduce endotoxin mediated TNFα induction and lethality
Monocytic cells
  anti-endotoxic activity in vitro (suppression of LPS-mediated induction of TNFα): excellent anti-endotoxic activity
Bacterial infections
  protection against bacterial infections: able to protect against bacterial infections

## Nisin A: lantibiotic, a variant of Nisin Z (ITSISLCTPGCKTGALMGCNMKTATCHCSIHVSK; thioether (positions not given here); also: lantibiotic; UniProt P13068 24-57, looked up)
[2]; 24 hours, 100 μg of peptide, ELISA, FIG. 7
  ability to induce MCP-1: excellent activity

## Nisin Z: cationic lantibiotic bacteriocin purified from L. lactis NIZO 22186 fermentation broth (ITSISLCTPGCKTGALMGCNMKTATCNCSIHVSK; thioether (positions not given here); also: lantibiotic; UniProt P29559 24-57, looked up)
Human PBMC
  synergy with known adjuvants like CpG: show synergy
Human PBMC; p<0.05
  MCP-3 release above the additive effect of CpG alone and lantibiotic alone: statistically significantly (p<0.05) increased
Human PBMC; vs three classes of CpG
  inducing MCP-1 and IL6, compared with CpG: superior to any of the three classes of CpG
[2]; FIG. 2A-C
  ability to stimulate human PBMC to induce the expression of the chemokines MCP-1, Gro-α and IL8: most effective; also recorded: ability to induce chemokines
[2]; between 30 and 150 μg/ml, FIG. 2A-C
  dose response of chemokine induction: good dose response

## Pep5: cationic lantibiotic purified from producer strain S. epidermidis 25 (TAGPAIRASVKQCQKTLKATRLFTVSCKGKNGCK; thioether (positions not given here); also: lantibiotic; UniProt P19578 27-60, looked up)
Human PBMC
  synergy with known adjuvants like CpG: show synergy
[2]; FIG. 2A-C
  ability to stimulate human PBMC to induce the expression of the chemokines MCP-1, Gro-α and IL8: ability to induce chemokines

## gallidermin: cationic lantibiotic purified from Staphylococcus gallinarum Tü 3928 (IASKFLCTPGCAKTGSFNSYCC; thioether (positions not given here); also: lantibiotic; UniProt P21838 31-52, looked up)
Human PBMC
  synergy with known adjuvants like CpG: show synergy
[2]; FIG. 2A-C
  ability to stimulate human PBMC to induce the expression of the chemokines MCP-1, Gro-α and IL8: quite effective; also recorded: ability to induce chemokines

## indolicidin: 13-mer peptide (ILPWKWPWWPWRR; ends and bridges not checked; UniProt P33046 131-143, looked up)
macrophages
  anti-endotoxic activity (suppression of LPS-stimulated TNFα by macrophages): rather modest anti-endotoxic activity

## nisin
Human PBMC; adjuvant formulations, ratios 2:1, 1:1 and 1:2 nisin to CpG, FIG. 8
  synergy in inducing MCP-1 over and above the individual components: demonstrated synergy
Citrobacter rodentium; 200 μg nisin intraperitoneally 4 h before gavage with 2.5×10^8 CFU, CCD imaging, FIG. 10
  infection in the gut / bacterial clearance: substantial decrease in infection in the gut; also recorded: superior clearance
Citrobacter rodentium; after injection of nisin, FIG. 10
  duration of the decrease in infection / superior clearance: up to 11 days
Citrobacter rodentium; [3]
  damage to epithelial integrity (histology score): decrease
  goblet cell depletion (histology score): decrease
  inflammatory exudate and edema (histology score): significant (p<0.05) increase
S. aureus; after 24 hours, peptide 4 hours before ~10^8 S. aureus in hog gastric mucin, FIG. 9A
  colony counts within the peritoneum: reducing average colony counts
S. aureus; cf. control peptides 1002 and 1005, FIG. 9B
  visual observation scores (physiological consequences): vastly improved
